The conditions of assay [1]: aged patients and patients suffering from Alzheimer's disease; cited from earlier work.
For assay [2], the system named is cerebral hypoxia-ischemia rat model. Particulars: cited from earlier work.
Another assay concerns the target acetylcholinesterase (Homo sapiens, UniProt P22303). Particulars: from EP 0 806 416; cited from earlier work.
Assay [3] concerns the target butyrylcholinesterase (BuChE) (Homo sapiens, UniProt P06276). Put plainly: Inhibition of butyrylcholinesterase. As to conditions: in contrast to AChE. It is filed as biochemical.
For assay [4], the system named is acetylcholinesterase (AChE). Description: Inhibition of acetylcholinesterase. It is filed as biochemical. Particulars: different species (rat, bovine and human).

acetylcholinesterase, sequence (P22303 32-614): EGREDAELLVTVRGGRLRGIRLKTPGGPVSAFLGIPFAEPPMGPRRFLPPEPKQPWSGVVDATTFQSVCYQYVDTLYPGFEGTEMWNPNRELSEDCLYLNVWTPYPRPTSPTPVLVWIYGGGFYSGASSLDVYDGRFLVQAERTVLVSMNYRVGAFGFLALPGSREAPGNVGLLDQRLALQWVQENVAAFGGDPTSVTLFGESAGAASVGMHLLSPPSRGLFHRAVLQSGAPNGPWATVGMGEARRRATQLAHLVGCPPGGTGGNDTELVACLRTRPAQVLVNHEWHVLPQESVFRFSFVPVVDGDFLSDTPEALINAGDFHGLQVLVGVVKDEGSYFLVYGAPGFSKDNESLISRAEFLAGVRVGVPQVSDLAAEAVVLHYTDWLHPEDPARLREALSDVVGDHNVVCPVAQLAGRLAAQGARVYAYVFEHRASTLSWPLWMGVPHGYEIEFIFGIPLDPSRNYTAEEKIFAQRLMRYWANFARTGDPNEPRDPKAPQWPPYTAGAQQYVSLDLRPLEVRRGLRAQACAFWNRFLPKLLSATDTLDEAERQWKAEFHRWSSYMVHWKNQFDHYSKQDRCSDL
butyrylcholinesterase (BuChE), sequence (P06276 29-602): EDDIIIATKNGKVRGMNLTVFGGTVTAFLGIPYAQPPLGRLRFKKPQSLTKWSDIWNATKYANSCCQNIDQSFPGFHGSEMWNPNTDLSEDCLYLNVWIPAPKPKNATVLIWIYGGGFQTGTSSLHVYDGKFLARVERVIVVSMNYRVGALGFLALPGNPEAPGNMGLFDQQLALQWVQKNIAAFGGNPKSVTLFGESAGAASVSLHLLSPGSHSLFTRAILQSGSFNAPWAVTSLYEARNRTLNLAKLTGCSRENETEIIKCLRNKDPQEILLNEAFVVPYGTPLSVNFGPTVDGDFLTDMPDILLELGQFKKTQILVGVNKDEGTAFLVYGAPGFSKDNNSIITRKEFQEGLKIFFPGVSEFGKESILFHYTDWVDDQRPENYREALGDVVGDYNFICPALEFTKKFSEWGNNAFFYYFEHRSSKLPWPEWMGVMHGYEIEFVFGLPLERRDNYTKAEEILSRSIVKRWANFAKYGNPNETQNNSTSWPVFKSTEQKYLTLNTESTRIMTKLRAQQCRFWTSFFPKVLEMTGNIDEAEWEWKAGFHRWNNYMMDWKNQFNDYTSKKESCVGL

As for `C/C=C1\[C@H]2C=C(C)C[C@]1(N)c1ccc(=O)[nH]c1C2` [Huperzine A], the Memory-enhancing effects entry in assay [1] is listed as “memory-enhancing effects”. The “Neuroprotective effect of rescue treatment” value in assay [2] is recorded as “beneficial neuroprotective effect”.
In the case of `C/C=C1\C2C=C(C)CC1(/N=C/c1cc(Cl)cc(OC)c1O)c1ccc(=O)[nH]c1C2` (centres unmarked) [derivative of formula (III)], the “Selectivity for acetylcholinesterase compared to butyrylcholinesterase” value on acetylcholinesterase is recorded as “highly selective activity in favour of acetylcholinesterase”. The “Inhibitory activity on butyrylcholinesterase (BuChE)” value in assay [3] is on record as “much weaker inhibitory activity”. Also, the “Inhibition of acetylcholinesterase (AChE)” value in assay [4] was “potent and selective inhibitor”.

Source of the values: US20070059369A1, “Subcutaneous delivery system, process for the preparation of the same and use of the same for the treatment of cholinergic deficient disorders” (priority 2003, published 2007).
